Experimental data: paper PMC2820545, “Mechanistic Characterization and Molecular Modeling of Hepatitis B Virus Polymerase Resistance to Entecavir” (PLoS ONE, 2010)
Like-named read-outs stand apart in the source and are kept apart here.

Key:
LVDr + M250V HBV = assay: HBV cell culture susceptibility (HBV-transfected HepG2 cells); assay type: cell-based; conditions: Hepatitis B virus, averaged from 2 isolates, read-out: ETV EC50, Average ± SD (Range)
Experimental: (§1) HepG2 human hepatoma cells (American Type Culture Collection) were maintained as described. The laboratory clone of HBV was the genotype D ayw serotype clone kindly provided by Dr. Steven Goff in the plasmid pCMV-HBV [41]. Plasmids expressing HBV RT with resistance substitutions were prepared using QuikChange® site-directed mutagenesis (Stratagene, LaJolla, CA).
(§2) HepG2 cell culture susceptibility assays were performed in cells transfected with HBV expression plasmids and cultured in the presence of a titration of antiviral compounds, as described in detail elsewhere. The levels of replicated, released HBV virions was measured at day five through immunocapture of detergent released nucleocapsids with anti-HBV core Ab and quantification of encapsidated HBV DNA [5]. Data were plotted as percent inhibition and EC50 values calculated as the drug concentration where 50% inhibition of extracellular HBV occurred.

LVDr + S202G HBV = assay: as above; assay type: cell-based; conditions: Hepatitis B virus, averaged from 2 isolates, read-out: ETV EC50, Average ± SD (Range)
Experimental: as §1, §2

LVDr + T184G + S202I HBV = assay: as above; assay type: cell-based; conditions: Hepatitis B virus, single patient isolate, read-out: ETV EC50, Average ± SD (Range)
Experimental: as §1, §2

LVDr + T184L HBV = assay: as above; assay type: cell-based; conditions: Hepatitis B virus, averaged from 2 isolates, read-out: ETV EC50, Average ± SD (Range)
Experimental: as §1, §2

LVDr L180M + M204V HBV [1] = assay: as above; assay type: cell-based; conditions: Hepatitis B virus
Experimental: as §1, §2

Wildtype HBV = assay: as above; assay type: cell-based; conditions: Hepatitis B virus
Experimental: as §1, §2

[2] = tested on: HBV clones with ETVr signature substitutions in a LVDr background; assay: HBV cell culture susceptibility, ETVr clones as a group; assay type: cell-based, hepatitis B virus
Text: The levels of ETVr observed in cell culture and in vitro enzymatic assays of representative clones with ETVr substitutions are shown in Table 1. […] High levels of ETVr were observed when HBV clones contained ETVr signature substitutions in a LVDr background both in vitro (>400-fold) and in culture (>200-fold), respectively (Table 1). A full analysis of the different ETVr substitutions in culture has been reported for engineered and clinical ETVr HBV isolates.
as §2

[3] = tested on: LVDr HBV with M250V or M250L; assay: HBV cell culture strand-specific EC50 determination; assay type: cell-based, hepatitis B virus; conditions: strand-specific riboprobes
Text: (§3) ETV inhibits HBV polymerase synthesis of DNA in vitro during both RNA-directed first (minus) strand synthesis as well as DNA-directed second (plus) strand synthesis. To determine if ETVr was influenced by the template for DNA synthesis, cell culture EC50 determinations were made using strand-specific riboprobes to hybridize to the synthesized HBV DNA, in parallel with the typical double-stranded DNA probe. In this way an ETV EC50 for each strand of DNA synthesis during the HBV cell culture was determined. […] The minus strand EC50 was similar to the EC50 obtained using the double-stranded DNA probe. These observations are consistent with M250 changes in the primer-grip region of HBV RT influencing ETVr at least in part through the template for DNA synthesis. An independent observation supported this hypothesis; resistance was seen using nucleocapsids prepared in our typical manner (Materials & Methods), isolated from cells grown in PFA to inhibit minus strand synthesis, enhancing the in vitro minus-strand synthesis activity of the preparations. […]
(§4) Figure 5 Analysis of ETVr through strand-specific DNA synthesis in culture. […] The levels of HBV DNA synthesized in the presence of ETV was determined by HBV-specific probe hybridization to HBV nucleocapsid DNA from the cultures. […]

[4] = tested on: wildtype, LVDr substituted and LVDr + T184 or S202 substituted HBV; assay: as above; assay type: cell-based, hepatitis B virus; conditions: strand-specific riboprobes, minus vs plus strand synthesis
Text: as §3, §4

[5] = tested on: wildtype or ETVr HBV polymerase; assay: Pyrophosphorolysis removal of incorporated ETV from HBV DNA; assay type: biochemical, hepatitis B virus; conditions: wildtype or ETVr enzymes; data not shown
Text: The inability of ETV to be proofread by HIV RT has been reported by Tchesnokov et al..

LVDr L180M + M204V HBV [6] = tested on: LVDr L180M + M204V HBV; set-up: method as in PMID 17267485, PMID 18362040; conditions: cited from earlier work

Compound `C=C1[C@H](CO)[C@@H](O)C[C@@H]1n1cnc2c(=O)[nH]c(N)nc21` [ETV, Entecavir] has an EC50 (LVDr + M250V HBV) of 3080 nM, an EC50 (LVDr + S202G HBV) of 1210 nM and an EC50 (LVDr + T184G + S202I HBV) of over 4000 nM. It also gave an EC50 (LVDr + T184L HBV) of 738 ± 119 nM, an EC50 (LVDr L180M + M204V HBV [1]; Cell culture, LVDr L180M + M204V, single isolate, read-out: ETV EC50, Average ± SD (Range)) of 30.4 ± 21.6 nM and an EC50 (LVDr L180M + M204V HBV [1]; panel of 15 LVDr isolates, read-out: average ETV EC50) of 31.1 nM. The EC50 (Wildtype HBV; Cell culture, Wildtype HBV, single isolate, read-out: ETV EC50, Average ± SD (Range)) was 3 ± 1.5 nM, the EC50 (Wildtype HBV; panel of 76 wildtype isolates, read-out: average ETV EC50) was 3.4 nM and the “level of ETVr in culture” value [2] was over 200 fold. The “strand-specific ETV EC50, first (minus) strand versus second (plus) strand” value [3] was “increased relative to that for the second (plus) strand”, the “strand-specific ETV EC50, both strands of HBV DNA compared” value [4] was “nearly equivalent levels of susceptibility” and the “removal of ETV incorporated into HBV DNA using pyrophosphorolysis” value [5] was “unable to demonstrate removal”. The “cross-resistance to ETV in culture” value (LVDr L180M + M204V HBV [6]) was “approximately 8 fold”.
